In brackets after ≈: the same amount, converted by molar mass. Like-named read-outs stand apart in the source and are kept apart here. Where a SMILES comes first, the peptide text is derived from it. Where no end group is shown, it is not given here. [ ]: non-standard residue; d: D form.
Assays:
Escherichia coli DH5 α = format: cell-based
Method: (§1) The MIC values of SEQ ID NO: 2 and SEQ ID NO: 19 were also determined against a range of multidrug-resistant isolates, including clinical and laboratory strains. Peptides, maintained at −20° C. in solid form for storage purposes, were subsequently dissolved in 0.01% (v/v) acetic acid (Sigma-Aldrich) to a stock concentration of […]. The stock solutions were made fresh for each experiment. Eighteen (18) bacterial isolates obtained from the Facility for Anti-Infective Drug Development and Innovation, Victoria, Australia (FADDI) as listed in Table 2 were maintained as stock cultures in Tryptic Soya Broth plus 20% (v/v) glycerol at a temperature of −80° C., and subcultured onto Nutrient Agar for each experiment. MIC values were determined in cation-adjusted Mueller-Hinton broth (CAMHB) and Mueller-Hinton broth (MHB) using standard broth micro-dilution methods.

[1] = tested on: Acinetobacter baumannii (ATCC 19606); format: cell-based
Method: as §1

[2] = tested on: Pseudomonas aeruginosa (ATCC 27853); format: cell-based
Method: as §1

[3] = tested on: Klebsiella pneumoniae (ATCC 13883); format: cell-based
Method: as §1

S. aureus (ATCC 43300) = format: cell-based, Staphylococcus aureus; conditions: ATCC 43300, 17 h
Method: as §1

E. coli DH5α = conditions: for antimicrobial activity, cleared area in radial diffusion assay (FIG. 4): 5 μl of 250 μg/ml solutions
Method: Briefly, approximately 4×10^6 of mid-logarithmic-phase organisms were grown on plates in 11 ml of warm 0.8% agarose containing 0.03% (w/v) Tryticase soy broth (TSB) powder, with or without 100 mM NaCl, buffered with 10 mM sodium phosphate, pH 7.4. The test peptide was serially diluted in acidified water (0.01% acetic acid), and 5 μl of diluted peptide sample was loaded in a 2.5 diameter well in the agarose. A 10 ml overlay gel composed of 6% TSB, 0.8% agarose and 10 mM sodium phosphate buffer (pH 7.4) was poured into each well. Plates were then incubated overnight to allow the surviving organisms to form microcolonies. The clear zone were measured to the nearest 0.1 mm using a magnified transilluminator and expressed in units (1 mm=10 U) after subtracting the well diameter. The minimum inhibitory concentration (MIC) is defined by the χ intercept of a regression line through zone diameters obtained from a series of serially diluted peptide samples.

[4] = tested on: Staphylococcus aureus (ATCC 700698); format: cell-based; conditions: ATCC 700698, 17 h
Method: as §1

[5] = tested on: Enterococcus faecium (ATCC 700221); format: cell-based; conditions: ATCC 700221, 17 h
Method: as §1

[6] = tested on: Staphylococcus aureus (ATCC 25923); format: cell-based
[7] = tested on: K. pneumoniae strain FADDI 010; format: cell-based, Klebsiella pneumoniae; conditions: strain FADDI 010, 17 h
Method: as §1

[8] = tested on: K. pneumoniae strain FADDI 009; format: cell-based, Klebsiella pneumoniae; conditions: strain FADDI 009, 17 h
Method: as §1

[9] = tested on: S. aureus strain FADDI 011; format: cell-based, Staphylococcus aureus; conditions: strain FADDI 011, 17 h
Method: as §1

S. aureus 700699 = format: cell-based, Staphylococcus aureus; conditions: 700699, 17 h
Method: as §1

[10] = tested on: P. aeruginosa strain FADDI 002; format: cell-based, Pseudomonas aeruginosa; conditions: strain FADDI 002, 17 h
Method: as §1

[11] = tested on: Candida albicans (ATCC 753); format: cell-based
[12] = tested on: tammar wallaby erythrocytes; format: cell-based
Method: The toxicity of the antimicrobial peptides was determined using a haemolytic assay. In particular, the hemolytic activity of the peptides was determined using tammar wallaby erythrocytes. Fresh erythrocytes were harvested from heparinized blood taken from a tammar wallaby. Erythrocytes were harvested by centrifugation for 3 min at 3000 g. Erythrocytes were then washed three times with PBS (pH 7.4) until the supernatant was essentially colourless. 20 μl two fold serial dilutions of the peptide were mixed with the same volume of erythrocytes in solution 2%) in PBS of each well of a 96-plate. 80 μl PBS was added to each well after the plate was incubated at 37° C. for one hour. Plates were then centrifuged at 3000 g for 5 min. 90 μl of the resulting supernatant was transferred to a flat-bottom microtiter plate and haemoglobin release was monitored by measuring the absorbance at 414 nm with an ELISA plate reader. […] Each sample was performed in triplicate. Percentage hemolysis was calculated by the following formula: [(OD414 peptide−OD414 buffer)/OD414 complete hemolysis−OD414 buffer)]×100%.

[13] = tested on: A. baumannii strain FADDI 005 (ATCC 19606 derivative); format: cell-based, Acinetobacter baumannii; conditions: 17 hr at 35° C.
Method: as §1
Pseudomonas aeruginosa (ATCC 27853) and S. aureus (ATCC 43300) were included as quality controls in experiments. P. aeruginosa strains FADDI 001 and FADDI 002 are mucoid; and P. aeruginosa strains FADDI 003 and FADDI 004 are non-mucoid. P. aeruginosa strain FADDI 003 also has a small colony morphology. The A. baumannii strain FADDI 005 is a colistin-resistant isolate obtained from Mueller-Hinton agar containing 10 mg/L colistin.

[14] = tested on: A. baumannii strain FADDI 007; format: cell-based, Acinetobacter baumannii; conditions: strain FADDI 007, 17 h
Method: as §1

[15] = tested on: A. baumannii strain FADDI 006; format: cell-based, Acinetobacter baumannii; conditions: strain FADDI 006, 17 h
Method: as §1

[16] = tested on: Streptococcus agalactiae (ATCC 12927); format: cell-based
[17] = tested on: Salmonella choleraesuis (ATCC 14028); format: cell-based
Bacillus subtilis = format: cell-based
[18] = tested on: Streptococcus pyogenes (ATCC 19615); format: cell-based
[19] = tested on: P. aeruginosa (ATCC 28753); format: cell-based, Pseudomonas aeruginosa
[20] = tested on: Streptococcus equi equi (ATCC 9527); format: cell-based; conditions: ATCC 9527
[21] = MHB (less than 5 mg/L Mg2+ and 24 mg/L Ca2+), 17 hr at 35° C.

CC[C@H](C)[C@H](NC(=O)[C@H](CCCCN)NC(=O)[C@H](CCC(=O)O)NC(=O)[C@H](CCCCN)NC(=O)[C@H](CO)NC(=O)[C@H](CCCCN)NC(=O)[C@H](CCCNC(=N)N)NC(=O)[C@H](Cc1ccccc1)NC(=O)[C@H](Cc1ccccc1)NC(=O)[C@H](CC(=O)O)NC(=O)CNC(=O)[C@H](CC(C)C)NC(=O)[C@@H](N)CC(C)C)C(=O)NCC(=O)N[C@@H](CCCCN)C(=O)N[C@@H](CCC(=O)O)C(=O)N[C@@H](Cc1ccccc1)C(=O)N[C@@H](CCCCN)C(=O)N[C@@H](CCCNC(=N)N)C(=O)N[C@H](C(=O)N[C@H](C(=O)N[C@@H](CCC(N)=O)C(=O)N[C@@H](CCCNC(=N)N)C(=O)N[C@H](C(=O)N[C@@H](CCCCN)C(=O)N[C@@H](CC(=O)O)C(=O)N[C@@H](Cc1ccccc1)C(=O)N[C@@H](CC(C)C)C(=O)N[C@@H](CCCNC(=N)N)C(=O)N[C@@H](CC(N)=O)C(=O)N[C@@H](CC(C)C)C(=O)N[C@H](C(=O)N1CCC[C@H]1C(=O)N[C@@H](CCCNC(=N)N)C(=O)N[C@H](C(=O)N[C@@H](CCC(=O)O)C(=O)N[C@@H](CO)C(=O)O)[C@@H](C)O)C(C)C)[C@@H](C)CC)C(C)C)[C@@H](C)CC [LL-37, reference compound]
MIC (Escherichia coli DH5 α; microbroth dilution in MHB): 32 µg/mL (≈ 7.12 µM)
MIC [1, 21]: 32 µg/mL (≈ 7.12 µM)
MIC [2, 21]: >32 µg/mL
MIC [3, 21]: 32 µg/mL (≈ 7.12 µM)

CC[C@@H](C)[C@@H](NC(=O)[C@@H](CO)NC(=O)[C@@H](CC(N)=O)NC(=O)[C@@H](CCCNC(=N)N)NC(=O)[C@@H](Cc1ccccc1)NC(=O)[C@@H](CCCCN)NC(=O)[C@@H](CCCCN)NC(=O)[C@@H](CC(C)C)NC(=O)[C@@H](CCCNC(=N)N)NC(=O)[C@@H](CCCCN)NC(=O)[C@@H](CCCNC(=N)N)NC(=O)[C@@H](CC(C)C)NC(=O)[C@@H](CCCCN)NC(=O)[C@@H](CCCCN)NC(=O)CNC(=O)[C@@H](Cc1ccccc1)NC(=O)CNC(=O)[C@@H](CCCNC(=N)N)NC(=O)[C@H](N)CCCCN)C(=O)N[C@H](CCCCN)C(=O)N[C@H](CCCCN)C(=O)N[C@H](CCCNC(=N)N)C(=O)N[C@H](CC(C)C)C(=O)N[C@H](CCCCN)C(=O)N[C@H](CC(N)=O)C(=O)N[C@H](Cc1ccccc1)C(=O)N[C@H](CC(N)=O)C(=O)N[C@@H](C(=O)N[C@@H](C(=O)N[C@@H](C(=O)N1CCC[C@@H]1C(=O)N[C@@H](C(=O)N1CCC[C@@H]1C(=O)N[C@H](CC(C)C)C(=O)N1CCC[C@@H]1C(N)=O)[C@H](C)CC)[C@H](C)CC)C(C)C)C(C)C [SEQ ID NO: 9, D-Lys D-Arg D-Gly D-Phe D-Gly D-Lys D-Lys D-Leu D-Arg D-Lys D-Arg D-Leu D-Lys D-Lys D-Phe D-Arg D-Asn D-Ser D-Ile D-Lys D-Lys D-Arg D-Leu D-Lys D-Asn D-Phe D-Asn D-Val D-Val D-Ile D-Pro D-Ile D-Pro D-Leu D-Pro] (H-[dK][dR]G[dF]G[dK][dK][dL][dR][dK][dR][dL][dK][dK][dF][dR][dN][dS][dI][dK][dK][dR][dL][dK][dN][dF][dN][dV][dV][dI][dP][dI][dP][dL][dP]-NH2; N-terminus and C-terminus assumed)
MIC (Escherichia coli DH5 α; DH5 α): 4 µg/mL (≈ 0.948 µM)
MIC ([1]; ATCC 19606, 17 h): 8 µg/mL (≈ 1.9 µM)
MIC ([2]; ATCC 27853, 17 h): 4 µg/mL (≈ 0.948 µM)
MIC ([3]; ATCC 13883, 17 h): 4 µg/mL (≈ 0.948 µM)
MIC (S. aureus (ATCC 43300)): >32 µg/mL

D-Lys Arg Gly Phe Gly Lys Lys Leu Arg Lys Arg Leu Lys Lys Phe Arg Asn Ser Ile Lys Lys Arg Leu Lys Asn Phe Asn Val Val Ile Pro Ile Pro Leu D-Pro ([dK]RGFGKKLRKRLKKFRNSIKKRLKNFNVVIPIPL[dP]) [SEQ ID NO: 11]
antimicrobial activity, cleared area in radial diffusion assay (FIG. 4) (E. coli DH5α; E. coli): exhibits antimicrobial activity

D-Pro Leu Pro Ile Pro Ile Val Val Asn Phe Asn Lys Leu Arg Lys Lys Ile Ser Asn Arg Phe Lys Lys Leu Arg Lys Arg Leu Lys Lys Gly Phe Gly Arg D-Lys ([dP]LPIPIVVNFNKLRKKISNRFKKLRKRLKKGFGR[dK]) [SEQ ID NO: 17]
antimicrobial activity, cleared area in radial diffusion assay (FIG. 4) (E. coli DH5α; E. coli): exhibits antimicrobial activity

KRGFGKKLRKRLKKFRNSIKKRLKNFNVVIPIPLP-NH2 [SEQ ID NO: 2]
MIC [4]: >64 µg/mL
MIC (Escherichia coli DH5 α; DH5 α): 2 µg/mL
MIC [5]: 16 µg/mL
antimicrobial activity in words ([6]; Table 1): weaker antimicrobial activity
MIC [7]: 32 µg/mL
MIC [8]: 4 µg/mL
MIC [9]: >64 µg/mL
MIC (S. aureus (ATCC 43300)): >64 µg/mL
MIC (S. aureus 700699): >64 µg/mL
MIC [10]: 4 µg/mL
antimicrobial activity in words ([11]; Table 1): Weaker antimicrobial activity
haemolysis at the MIC determined in Example 1 [12]: less than 5%
haemolysis at the majority of concentrations tested (FIGS. 2a and 2b) [12]: did not cause substantial levels of haemolysis
MIC ([13]; CAMHB (10.0 mg/L Mg2+ and 24 mg/L Ca2+)): 8 µg/mL
MIC ([13]; MHB (less than 5 mg/L Mg2+ and 24 mg/L Ca2+)): 4 µg/mL
MIC [14]: 8 µg/mL
MIC [15]: >64 µg/mL
antimicrobial activity in words ([16]; Table 1): moderate antimicrobial activity
radial clear zone compared to LL-37 (FIG. 3) (E. coli DH5α; 5 μl of 250 μg/ml solutions of each peptide, E. coli): larger radial clear zone

PLPIPIVVNFNKLRKKISNRFKKLRKRLKKGFGRK [SEQ ID NO: 13]
antimicrobial activity, cleared area in radial diffusion assay (FIG. 4) (E. coli DH5α; E. coli): exhibits antimicrobial activity

RKKGSKRHKPGSYSVIALGKPGVKKSPYMEAL-NH2 [SEQ ID NO: 31]
MIC [17]: >250 µg/mL
MIC (Bacillus subtilis): 14.03 ± 0.25 µg/mL
MIC ([6]; ATCC 25923): 8.5 ± 0.23 µg/mL
MIC ([18]; ATCC 19615): 3.43 ± 0.34 µg/mL
antimicrobial activity in words ([18]; Table 1): moderate protection
MIC ([11]; ATCC 753): >250 µg/mL
MIC [19]: 57.8 µg/mL
MIC [20]: 8.66 ± 0.45 µg/mL
MIC ([16]; ATCC 12927): 5.44 ± 0.11 µg/mL
MIC (E. coli DH5α; DH5 α): 1.16 ± 0.67 µg/mL
antimicrobial activity in words (E. coli DH5α; Table 1): strong protection
